Measurements taken from patent publication US7034020B2, “Derivatives of butyric acid and uses thereof” (The University of Arkansas for Medical Science, priority 1999, dated 2006).

Tested on: lymph node CD4+ T cells
Experiment: Ovalbumin-stimulated proliferation of lymph node CD4+ T cells from treated mice
Format: in vivo, C57BL/10 mice
Conditions: MEB 0.15 mmol ip on day 2 or day 3; cells restimulated with ovalbumin in vitro
Method: C57BL/10 mice are injected ip with ovalbumin/CFA on day 0, followed by a single ip injection of saline or MEB (0.15 mmol) on Days 2 or 3. The mice are reimmunized with ovalbumin sc on Day 10. Isotype-specific anti-ovalbumin antibody generated during the primary immune response (FIG. 4A), and the secondary immune response (FIG. 4B) are measured in the serum at day 10 and day 16, respectively. (FIG. 4C). […] This experiment was repeated, and the proliferation data represents the means of the two experiments.
If the butyrate derivatives suppressed antibody production to a thymus-dependent antigen by inactivating the antigen-specific CD4^+ T cells required for B cell help, then the butyrate derivatives need only be present during an early stage during which the CD4^+ T cells would otherwise be activated by antigen. […] On day 10 the mice receive 100 μg ovalbumin in conjunction with incomplete Freund's adjuvant sc at the base of the tail. After an additional 7 days, cells from the periaortic and mesenteric lymph nodes were enriched for CD4^+ T cells by negative selection (Griffin et al., 1998). […] Proliferation is measured on day 4 by assessing incorporation of [^3H]-TdR after a 12 hour pulse.

Compound: CCCC(=O)OCCN1CCOCC1.Cl [MEB, 2-(4-Morpholinyl)ethyl butyrate hydrochloride]
- Antigen-specific proliferation of CD4+ T cells from antigen-primed mice: significant loss of antigen-specific proliferation
